This note sets out measurements from US4818760A, “Derivatives of pyridylsulfinyl(benz-or thieno-)imidazoles and their use as gastric secretion inhibiting substances” (Chemie Linz Aktiengesellschaft, priority 1986, dated 1989).

By IC50 is commonly meant the concentration needed to halve the response being measured. Low values mean inhibition by little substance, high ones a need for much substance.

This experiment addresses H^+ /K^+ -ATPase (Homo sapiens, UniProt P20648). Put plainly: Inhibition of H^+ /K^+ -ATPase (comparison experiment / enzyme test). It counts as biochemical.

SMILES strings stand for the structures.

Chain of H^+ /K^+ -ATPase (P20648 whole entry): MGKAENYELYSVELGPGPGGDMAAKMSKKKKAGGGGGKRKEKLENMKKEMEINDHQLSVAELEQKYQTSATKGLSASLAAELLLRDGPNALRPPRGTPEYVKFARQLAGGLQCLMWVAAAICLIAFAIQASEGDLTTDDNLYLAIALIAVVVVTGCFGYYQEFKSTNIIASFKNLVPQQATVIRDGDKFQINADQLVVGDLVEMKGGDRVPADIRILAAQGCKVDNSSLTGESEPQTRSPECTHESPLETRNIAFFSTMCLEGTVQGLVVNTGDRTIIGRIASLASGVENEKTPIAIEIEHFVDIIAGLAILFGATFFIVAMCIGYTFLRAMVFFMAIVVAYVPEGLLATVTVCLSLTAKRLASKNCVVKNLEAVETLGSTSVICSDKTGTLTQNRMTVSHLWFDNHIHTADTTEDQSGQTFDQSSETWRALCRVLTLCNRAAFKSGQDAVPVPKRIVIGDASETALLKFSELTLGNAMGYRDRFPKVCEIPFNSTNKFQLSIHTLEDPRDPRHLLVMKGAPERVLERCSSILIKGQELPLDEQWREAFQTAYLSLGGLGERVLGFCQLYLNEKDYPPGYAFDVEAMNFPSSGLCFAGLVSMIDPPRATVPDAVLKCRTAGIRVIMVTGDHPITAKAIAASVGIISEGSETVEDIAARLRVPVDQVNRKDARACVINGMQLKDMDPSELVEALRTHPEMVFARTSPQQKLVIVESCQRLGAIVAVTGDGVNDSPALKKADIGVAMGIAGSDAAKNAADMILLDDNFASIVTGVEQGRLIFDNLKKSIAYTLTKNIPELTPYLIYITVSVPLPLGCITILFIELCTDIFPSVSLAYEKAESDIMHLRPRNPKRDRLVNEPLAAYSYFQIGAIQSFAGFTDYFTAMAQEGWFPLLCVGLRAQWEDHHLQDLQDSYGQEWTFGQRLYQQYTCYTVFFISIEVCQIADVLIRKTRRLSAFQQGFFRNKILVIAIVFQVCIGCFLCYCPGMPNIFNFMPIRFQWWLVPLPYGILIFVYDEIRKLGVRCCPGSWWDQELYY
Chain of H^+ /K^+ -ATPase (P51164 whole entry partner): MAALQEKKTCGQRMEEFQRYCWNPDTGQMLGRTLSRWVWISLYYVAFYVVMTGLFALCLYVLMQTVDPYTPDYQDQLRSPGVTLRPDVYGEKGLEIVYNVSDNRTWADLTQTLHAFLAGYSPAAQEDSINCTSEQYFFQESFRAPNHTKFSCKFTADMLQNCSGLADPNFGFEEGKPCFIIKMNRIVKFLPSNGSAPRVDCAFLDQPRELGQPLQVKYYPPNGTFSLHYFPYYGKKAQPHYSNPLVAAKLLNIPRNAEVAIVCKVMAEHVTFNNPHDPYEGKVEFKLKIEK

As to `COc1c(C)cnc(C[S+]([O-])c2nc3cc(C4=NCCO4)ccc3[nH]2)c1C` (centres unmarked) [Substance A, 5-(4,5-dihydro-2-oxazolyl)-2-((3,5-dimethyl-4-methoxy-2-pyridyl)methylsulfinyl)-1H-benzimidazole], the IC50 is 5.3 µM. Further, for the setting “comparison with omeprazole”, the “inhibition of H^+ /K^+ -ATPase relative to omeprazole” value is reported as “approximately five times greater than does omeprazole”.
